Legend:
Mu-type opioid receptor [1] = target: T1, Mu-type opioid receptor (Homo sapiens, UniProt P35372); experiment: biochemical
Description: Displacement of [3H]DAMGO from human opioid gamma receptor expressed in CHO cells

[2] = target: T2, Kappa-type opioid receptor (Homo sapiens, UniProt P41145)
Description: Antagonist activity at human opioid kappa receptor expressed in CHO cells assessed as inhibition of U-50488-stimulated [35S]GTP-gamma-S binding

[3] = target: T2, Kappa-type opioid receptor; format: functional, cell-based, CHO
Description: Agonist activity at human opioid kappa receptor expressed in CHO cells assessed as stimulation of [35S]GTPgammaS binding

[4] = target: T2, Kappa-type opioid receptor; experiment: biochemical; format: cell-based, CHO
Description: Displacement of [3H]U-69593 from human opioid kappa receptor expressed in CHO cells

[5] = target: Delta-type opioid receptor (Homo sapiens, UniProt P41143); experiment: biochemical; format: cell-based, CHO
Delta-type opioid receptor, sequence (P41143 whole entry): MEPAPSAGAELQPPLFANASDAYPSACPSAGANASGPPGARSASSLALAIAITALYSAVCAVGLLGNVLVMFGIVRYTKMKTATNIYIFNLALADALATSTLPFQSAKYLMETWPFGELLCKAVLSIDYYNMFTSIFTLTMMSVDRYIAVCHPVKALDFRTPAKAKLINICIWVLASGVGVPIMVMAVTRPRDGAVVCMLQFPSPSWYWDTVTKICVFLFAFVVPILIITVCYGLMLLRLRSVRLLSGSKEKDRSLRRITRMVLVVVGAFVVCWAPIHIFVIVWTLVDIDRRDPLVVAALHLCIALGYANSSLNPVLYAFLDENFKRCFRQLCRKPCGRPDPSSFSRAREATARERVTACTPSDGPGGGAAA
Description: Displacement of [3H]naltrindole from human opioid delta receptor expressed in CHO cells

Mu-type opioid receptor [6] = target: T1, Mu-type opioid receptor
Description: Agonist activity at human opioid gamma receptor expressed in CHO cells assessed as inhibition of DAGO-stimulated [35S]GTPgammaS binding

Mu-type opioid receptor [7] = target: T1, Mu-type opioid receptor; remark: listed apart in the source
Description: Agonist activity at human opioid gamma receptor expressed in CHO cells assessed as stimulation of [35S]GTP-gamma-S binding

T1 sequence (P35372 whole entry): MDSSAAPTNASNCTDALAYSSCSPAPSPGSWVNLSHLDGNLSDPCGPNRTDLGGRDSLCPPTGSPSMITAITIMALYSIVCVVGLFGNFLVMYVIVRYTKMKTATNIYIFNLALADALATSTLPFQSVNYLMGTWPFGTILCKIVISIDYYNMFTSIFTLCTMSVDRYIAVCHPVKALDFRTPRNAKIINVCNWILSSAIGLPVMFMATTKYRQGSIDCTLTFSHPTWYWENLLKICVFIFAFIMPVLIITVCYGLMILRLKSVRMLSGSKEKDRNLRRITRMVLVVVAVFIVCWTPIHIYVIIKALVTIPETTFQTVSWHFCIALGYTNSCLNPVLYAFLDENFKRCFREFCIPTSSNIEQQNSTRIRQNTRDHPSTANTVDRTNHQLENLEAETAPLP
T2 sequence (P41145 whole entry): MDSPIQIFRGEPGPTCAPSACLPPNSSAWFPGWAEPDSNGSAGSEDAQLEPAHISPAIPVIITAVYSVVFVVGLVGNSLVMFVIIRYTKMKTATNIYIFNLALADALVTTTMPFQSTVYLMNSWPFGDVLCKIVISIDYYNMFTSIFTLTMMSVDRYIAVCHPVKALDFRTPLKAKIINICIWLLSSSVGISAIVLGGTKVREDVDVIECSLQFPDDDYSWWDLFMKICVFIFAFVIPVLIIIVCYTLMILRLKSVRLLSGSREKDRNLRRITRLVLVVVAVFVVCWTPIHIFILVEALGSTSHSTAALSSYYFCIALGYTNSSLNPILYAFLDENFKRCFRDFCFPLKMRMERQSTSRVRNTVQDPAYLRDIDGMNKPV

Compound	Ki (Mu-type opioid receptor [1])	IC50 [2]	EC50 [3]	Ki [4]	Ki [5]	IC50 (Mu-type opioid receptor [6])	EC50 (Mu-type opioid receptor [7])
O=C(CCCCCCCCC(=O)Oc1ccc2c3c1O[C@H]1[C@H](O)CC[C@@]4(O)[C@@H](C2)N(CC2CCC2)CC[C@]314)Oc1ccc2c(c1)[C@@]13CCCCC1[C@@H](C2)N(CC1CCC1)CC3 (some centres undefined)	0.46 nM	600 nM	3.2 nM	0.34 nM	28 nM	18 nM	–
O=C(CCCCCCCCC(=O)Oc1ccc2c3c1O[C@H]1C(=O)CC[C@@]4(O)[C@@H](C2)N(CC2CC2)CC[C@]314)Oc1ccc2c(c1)[C@@]13CCCCC1[C@@H](C2)N(CC1CCC1)CC3 (some centres undefined)	0.29 nM	–	3.4 nM	0.12 nM	15 nM	160 nM	4.4 nM
O=C(O)CCCCCCCCC(=O)Oc1ccc2c(c1)[C@@]13CCCCC1[C@@H](C2)N(CC1CCC1)CC3 (some centres undefined)	–	–	28 nM	–	–	–	–
C=CCN1CC[C@]23c4c5ccc(OC(=O)CCCCCCCCC(=O)Oc6ccc7c(c6)[C@@]68CCCCC6[C@@H](C7)N(CC6CCC6)CC8)c4O[C@H]2C(=O)CC[C@@]3(O)[C@H]1C5 (some centres undefined)	0.43 nM	–	1.6 nM	0.13 nM	39 nM	25 nM	2 nM

Source: ChEMBL document CHEMBL1147138 (J Med Chem, 2007)
